Experimental findings from patent US4965280A, “Antifungal carbinols” (E. I. Du Pont de Nemours and Company, priority 1989, dated 1990) are described below.

For test [1], the system named is Candida albicans ATCC 11651. Put plainly: In vitro antifungal MIC, microtiter broth dilution. The settings on record: for MIC values, C. albicans: 30°, 24 hours; for MIC: Candida albicans, ATCC11651, 24 h.
Test [2] has as its system Aspergillus fumigatus ATCC 28214. Put plainly: In vitro antifungal MIC, microtiter broth dilution. The settings on record: for MIC values, A. fumigatus: 30°, 24 hours; for MIC: Aspergillus fumigatus, ATCC28214, 24 h.
The test system of test [3] is Candida albicans ATCC 11651. Put plainly: In vivo systemic Candida infection in mice, primary assay. Conditions: for responders at 150 mg/kg / responders at 1 mg/kg/day: Candida albicans, read-out: % Survival. Further details: species or system Candida albicans; CF-1 female mice. The text has this: The […] activity of test compounds is based on the percent (%) survival of infected animals receiving test or standard agent compared to that in an infected untreated group (Table 6). The in vivo assays are chronic systemic infections lethal to mice within 7 days post infection, [J. Barnes, et al. Lab Investigation, 49 460-467 (1963), and T. Rogers and E. Balish, Infection and Immunity, 14 33-38 (1976)].
Candida albicans ATCC 11651, from a frozen stock culture (10^9 organisms/ml) maintained at -70°, is diluted in saline to 1×10^7 organisms/ml and 0.2 ml inoculated intravenously (caudal vein) into 20.0 gm CF-1 female mice (Charles River).
Test compounds are routinely solubilized in 0.25% (w/v) methylcellulose (Methocel®) but for those compounds difficult to solubilize 10% (w/v) Emulophor® (EL620 GAF Corp.) is used. The standard antifungal agents, amphotericin B (Fungizone®) in water and ketoconazole (Nizoral®) in Methocel®, are administered at 1.0 mg/kg/day and 150 mg/kg/day, respectively.
In a primary assay, mice (10 per group) are infected with C. albicans, and receive test compounds at 50 or 150 mg/kg/day via the subcutaneous route. Animals are dosed with the test compound at 1 and 6 hour post-infection and then once daily for the next three days. Survival of mice in each group is recorded for 21 days.
Compounds which protect ≥70% of the infected animals for 14 days at a dose 150 mg/kg/day or less are viewed as active.

Setting [4] is: read-out: MIC values, C. albicans, 30°, 24 hours.
Where [5] appears, read: ATCC11651, 168 h, 150 mg/kg per day, day 7.
[6] abbreviates: ATCC11651, 336 h, 150 mg/kg per day, day 14.
Where [7] appears, read: ATCC11651, 504 h, 150 mg/kg per day, day 21.
Setting [8] is: read-out: MIC values, A. fumigatus, 30°, 24 hours.
The mark [9] stands for this setting: read-out: MIC values, C. albicans.
[10] abbreviates: read-out: MIC values, A. fumigatus.

Values after ≈ are worked out from the molar mass of the structure shown. Structures can show the parent of a compound that is named as a salt. Where two headings read alike, the source gives them in different places.

For `C=C(c1ccc(Cl)cc1)C(O)(Cn1cncn1)c1ccc(Cl)cc1Cl` (stereo not drawn) [26 HCl salt], the “MIC values, C. albicans” value in test [1] was found to be 0.03 µg/mL. The “MIC values, A. fumigatus” value in test [2] was determined as 0.4 µg/mL.
Turning to `C=C(c1ccc(C(C)(C)C)cc1)C(O)(Cn1cncn1)c1ccc(F)cc1` (stereo not drawn) [Example 114], the minimal inhibitory concentration (MIC) in test [1] (setting [4]) stood at 0.4 µg/mL (≈ 1.09 µM); in test [2] (setting [8]), 50 µg/mL (≈ 137 µM). Moreover, the responders at 150 mg/kg in test [3] (setting [5]) was 70%; in test [3] (setting [6]), 10%; in test [3] (setting [7]), 10%.
With `C=C(c1ccccc1)C(O)(Cn1cncn1)C(F)(F)C(F)(F)C(F)(F)C(F)(F)F` (stereo not drawn) [Example 55], the responders at 150 mg/kg came to 100% in test [3] (ATCC11651, 168 h); 70% in test [3] (ATCC11651, 336 h); 50% in test [3] (ATCC11651, 504 h).
As to `C[C@@H]1[C@H](O)[C@@H](C)/C=C/C=C/C=C/C=C/C=C/C=C/C=C/[C@H](O[C@@H]2O[C@H](C)[C@@H](O)[C@H](N)[C@@H]2O)C[C@@H]2O[C@](O)(C[C@@H](O)C[C@@H](O)[C@H](O)CC[C@@H](O)C[C@@H](O)CC(=O)O[C@H]1C)C[C@H](O)[C@H]2C(=O)O` [Amphotericin B, reference compound], the MIC in test [1] (setting [9]) stood at 0.33 ± 0.2 µg/mL (≈ 0.357 µM); in test [2] (setting [10]), 1.4 ± 0.5 µg/mL (≈ 1.52 µM). Also, the responders at 1 mg/kg/day in test [3] (ATCC11651, 168 h) is 100%; in test [3] (ATCC11651, 336 h), 100%; in test [3] (ATCC11651, 504 h) it was 100%.
In the case of `C[C@@H]1[C@H](O)[C@@H](C)/C=C/C=C/CC/C=C/C=C/C=C/C=C/C(O[C@H]2O[C@H](C)[C@@H](O)[C@H](N)[C@@H]2O)CC2O[C@](O)(CC(O)C(O)CCC(O)CC(O)CC(O)CC(=O)O[C@H]1C)CC(O)C2C(=O)O` (stereo partly drawn) [Nystatin, reference compound], the “MIC values, C. albicans” value in test [1] turned out to be 1.3 ± 0 µg/mL (≈ 1.4 µM). The “MIC values, A. fumigatus” value in test [2] turned out to be 3.0 ± 1.0 µg/mL (≈ 3.24 µM).
The like results for `C=C(c1ccc(F)cc1)C(O)(Cn1cncn1)c1ccc(F)cc1` (stereo not drawn) [1 HCl salt] were, in that order, 0.05 µg/mL and 12.5 µg/mL.
For `Nc1nc(=O)[nH]cc1F` [5-Fluorocytosine, reference compound], the MIC in test [1] (setting [4]) worked out at 0.14 ± 0.1 µg/mL (≈ 1.08 µM); in test [2] (setting [8]), 5.7 ± 4 µg/mL (≈ 44.2 µM).
In the case of `C=C(c1ccc(Cl)cc1)C(O)(Cn1cncn1)c1ccc(Cl)cc1Cl` (stereo not drawn) [Example 26 HCl salt], the “% Survival” value was 100% in test [3] (150 mg/kg per day, day 7); 90% in test [3] (150 mg/kg per day, day 14, listed as 26 salt); 80% in test [3] (150 mg/kg per day, day 21, listed as 26 salt).
On to `OC(Cn1cncn1)(c1ccc(F)cc1)C1(c2ccc(F)cc2)CO1` (single isomer, unassigned) [Example 1487, 2,3-bis(4-fluorophenyl)-1-(1H-1,2,4-triazol-1-yl)-3,4-epoxy-2-butanol], for which the MIC in test [1] (setting [4]) was found to be 0.4 µg/mL (≈ 1.17 µM); in test [2] (setting [8]) it was 6.3 µg/mL (≈ 18.3 µM). In addition, the responders at 150 mg/kg in test [3] (setting [5]) came out at 100%; in test [3] (setting [6]), 100%; in test [3] (setting [7]), 70%.
As for `C=C(c1ccc(F)cc1)C(O)(Cn1cncn1)c1ccc(F)cc1` (single isomer, unassigned) [1277 HCl salt], the “MIC values, C. albicans” value in test [1] was 0.03 µg/mL. Besides, the “MIC values, A. fumigatus” value in test [2] was determined as 3.2 µg/mL.
Consider `CC=C(c1ccccc1)C(O)(Cn1cncn1)c1ccc(F)cc1` (stereo not drawn) [Example 286], for which the values for the MIC in test [1] (setting [4]) and in test [2] (setting [8]) were 0.4 µg/mL (≈ 1.24 µM) and 25 µg/mL (≈ 77.3 µM), respectively. The responders at 150 mg/kg in test [3] (setting [5]) was 100%; in test [3] (setting [6]), 50%; in test [3] (setting [7]) it was 20%.
In the case of `Clc1ccc(COC(Cn2ccnc2)c2ccc(Cl)cc2Cl)c(Cl)c1` (stereo not drawn) [Miconazole, reference compound], the results for the MIC in test [1] (setting [9]) and in test [2] (setting [10]) were at most 0.1 µg/mL and 1.3 µg/mL (≈ 3.12 µM), respectively.
Consider `C=C(c1ccc(F)cc1)C(O)(c1ccc(F)cc1)C(F)(F)n1cncn1` (stereo not drawn) [Example 1260], for which the minimal inhibitory concentration (MIC) in test [1] (setting [4]) is 0.8 µg/mL (≈ 2.2 µM); in test [2] (setting [8]), over 100 µg/mL.
Take `C=C(c1ccc(F)cc1)C(O)(Cn1cncn1)c1ccncc1` (stereo not drawn) [Example 699]: the figures for the MIC in test [1] (setting [4]) and in test [2] (setting [8]) were 50 µg/mL (≈ 161 µM) and 100 µg/mL (≈ 322 µM), respectively.
Turning to `C=C(c1cccc(C(F)(F)F)c1)C(O)(Cn1cncn1)c1ccc(F)cc1` (stereo not drawn) [Example 725], the responders at 150 mg/kg was 90% in test [3] (setting [5]), 90% in test [3] (setting [6]) and 40% in test [3] (setting [7]).
Take `C=C(c1ccccc1Cl)C(O)(Cn1cncn1)c1ccc(Cl)cc1` (stereo not drawn) [34 salt]: the “% Survival” value in test [3] (150 mg/kg per day, day 7) was 100%; in test [3] (150 mg/kg per day, day 14), 100%; in test [3] (150 mg/kg per day, day 21), 100%.
As to `C=C(c1ccc(Br)cc1)C(O)(Cn1cncn1)c1ccc(F)cc1` (stereo not drawn) [Example 85], the MIC is at most 0.4 µg/mL in test [1] (setting [4]) and 12.5 µg/mL (≈ 32.2 µM) in test [2] (setting [8]). Also, the responders at 150 mg/kg in test [3] (setting [5]) amounted to 100%; in test [3] (setting [6]), 80%; in test [3] (setting [7]) it was 70%.
`C=C(c1ccccc1Cl)C(O)(Cn1cncn1)c1ccc(F)cc1F` (stereo not drawn) [35 salt]: the “% Survival” value in test [3] (150 mg/kg per day, day 7) was found to be 100%; in test [3] (150 mg/kg per day, day 14), 100%; in test [3] (150 mg/kg per day, day 21), 70%.
On to `C=C(c1ccccc1Cl)C(O)(Cn1cncn1)c1ccc(Cl)cc1` (stereo not drawn) [34 HCl salt], for which, in test [1], the “MIC values, C. albicans” value turned out to be 0.03 µg/mL. Besides, the “MIC values, A. fumigatus” value in test [2] is 1.6 µg/mL.
In the case of `C=C(c1ccc(F)cc1)C(O)(c1ccc(F)cc1)C(F)n1cncn1` (stereo not drawn) [Example 1258], the MIC in test [1] (setting [4]) is 1.6 µg/mL (≈ 4.63 µM); in test [2] (setting [8]), over 100 µg/mL.
Turning to `CC(=O)N1CCN(c2ccc(OCC3COC(Cn4ccnc4)(c4ccc(Cl)cc4Cl)O3)cc2)CC1` (stereo not drawn) [Ketoconazole, reference compound], the minimum inhibitory concentration (MIC) was at most 0.1 µg/mL in test [1] (setting [4]) and 11 ± 5 µg/mL (≈ 20.7 µM) in test [2] (setting [8]). The figures for the responders at 150 mg/kg in test [3] (setting [5]), in test [3] (setting [6]) and in test [3] (setting [7]) were 100%, 80% and 50%, respectively.
With `C=C(c1ccccc1Cl)C(O)(Cn1cncn1)c1ccc(F)cc1F` (stereo not drawn) [35 HCl salt], the “MIC values, C. albicans” value in test [1] is 0.03 µg/mL. In addition, in test [2], the “MIC values, A. fumigatus” value was at most 0.2 µg/mL.
Take `C=C(c1ccc(C(C)(C)C)cc1)C(O)(Cn1cncn1)c1ccc(Cl)cc1` (stereo not drawn) [Example 117]: the results for the MIC in test [1] (setting [4]) and in test [2] (setting [8]) were 0.4 µg/mL (≈ 1.05 µM) and 100 µg/mL (≈ 262 µM), respectively. Moreover, the responders at 150 mg/kg in test [3] (setting [5]) was determined as 60%; in test [3] (setting [6]), 0%; in test [3] (setting [7]), 0%.
